Test systems include U251 CNS; CCRF-CEM leukemia; NCI-H522 lung; MCF7 breast; HL-60(TB) leukemia; OVCAR-5 ovarian; KM12 colon; M14 melanoma; NCI-H23 lung; OVCAR-8 ovarian.
Common to all, as to experiment: NCI anticancer screen, dose series, 48 h

Several values for one entry are separate records, joined by “and”; a condition that tells them apart may be missing. Equal entries are not always repeated.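 Growth conditions: 96-well plates. Treatment: test compound, 48 hours, 5 concentrations. Analysis: linear interpolation between bracketing concentrations; unreached endpoints set to highest concentration. The concentration for 50% growth inhibition is given as GI50. TGI: total growth inhibition.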

Consider `O=C(CN1CCN(CCN2C(=O)c3cccc4cccc(c34)C2=O)CC1)Nc1ccc2ncsc2c1`, for which the GI50 was 4.39 µM in the assay with U251 CNS; 5.4 µM with CCRF-CEM leukemia; 3.96 µM with NCI-H522 lung; 4.65 µM in the assay on MCF7 breast; 10.2 µM in the assay on HL-60(TB) leukemia; 10.5 µM in the assay on OVCAR-5 ovarian. The GI50 in the assay with KM12 colon was 6.16 µM; with M14 melanoma it was 8.63 µM; in the assay on NCI-H23 lung, 7.08 µM; in the assay with OVCAR-8 ovarian, 3.8 µM. Further, the TGI was 17.2 µM in the assay on U251 CNS; 53 µM in the assay with CCRF-CEM leukemia; 18 µM in the assay with NCI-H522 lung; 17.5 µM with MCF7 breast; 27.5 µM in the assay with HL-60(TB) leukemia; greater than 100 µM in the assay on OVCAR-5 ovarian. Further, the TGI in the assay with KM12 colon was determined as 25.4 µM; in the assay with M14 melanoma it was 22.2 µM; in the assay on NCI-H23 lung it was 27 µM; in the assay with OVCAR-8 ovarian it was 22.9 µM.

Consider `O=C(Nc1ccn(C2CC(I)C(COC(c3ccccc3)(c3ccccc3)c3ccccc3)O2)c(=O)n1)c1ccccc1` (stereo not given), for which the TGI was 14.5 µM in the assay on U251 CNS; 17.3 µM in the assay on CCRF-CEM leukemia; 21.5 µM with NCI-H522 lung; greater than 31.6 µM in the assay with MCF7 breast; 21.5 µM in the assay with HL-60(TB) leukemia; greater than 21.5 µM in the assay on OVCAR-5 ovarian. Moreover, the TGI with KM12 colon is 24 µM; in the assay on M14 melanoma, 13.8 µM; with NCI-H23 lung, 21.5 µM; in the assay on OVCAR-8 ovarian, 13.1 µM.

Regarding `COc1ccc(C2CC(c3ccccc3)=NN2C(=O)c2cc(OC)c(OC)c(OC)c2)cc1O` (stereo not given), the GI50 was 0.383 µM in the assay with U251 CNS; 0.473 µM in the assay on CCRF-CEM leukemia; 0.335 µM with NCI-H522 lung; 0.339 µM in the assay on MCF7 breast; 0.244 µM in the assay with HL-60(TB) leukemia; 8.43 µM in the assay on OVCAR-5 ovarian. For the same compound, the GI50 in the assay on KM12 colon is 0.371 µM; with M14 melanoma it was 0.299 µM; in the assay on NCI-H23 lung it was 0.743 µM; in the assay with OVCAR-8 ovarian it was 0.659 µM. For the same compound, the TGI was 13.8 µM in the assay with U251 CNS; greater than 31.9 µM in the assay on CCRF-CEM leukemia; 7.03 µM with NCI-H522 lung; greater than 53.6 µM with MCF7 breast; 1.05 µM in the assay with HL-60(TB) leukemia; greater than 65.5 µM in the assay with OVCAR-5 ovarian. For the same compound, the TGI in the assay with KM12 colon was 24.1 µM; in the assay on M14 melanoma it was 3.99 µM; with NCI-H23 lung it was greater than 65.8 µM; with OVCAR-8 ovarian it was greater than 76.5 µM.

Consider `c1ccc(COCC[P+](c2ccccc2)(c2ccccc2)c2ccccc2)cc1`, for which the GI50 in the assay on U251 CNS was 0.869 µM; with CCRF-CEM leukemia, 1.36 µM; in the assay with NCI-H522 lung, 0.467 µM; with MCF7 breast it was 0.564 µM; with HL-60(TB) leukemia it was 0.29 µM; with OVCAR-5 ovarian, 2.85 µM. Besides, the GI50 in the assay with KM12 colon is 0.501 µM; in the assay with M14 melanoma it was 2.12 µM; with NCI-H23 lung, 0.664 µM; with OVCAR-8 ovarian it was 1.67 µM. The TGI with U251 CNS was 11.7 µM; in the assay with CCRF-CEM leukemia it was 14.1 µM; with NCI-H522 lung it was 4.17 µM; with MCF7 breast, 7.27 µM; with HL-60(TB) leukemia it was 1.39 µM; with OVCAR-5 ovarian, greater than 100 µM. The TGI with KM12 colon worked out at 11.1 µM; with M14 melanoma, 13.4 µM; in the assay with NCI-H23 lung it was 6.75 µM; in the assay on OVCAR-8 ovarian, 10.8 µM.

For `CCC(CC)c1cc(N[C@H]2CC[C@H](N)C2)n2nccc2n1`, the GI50 in the assay on U251 CNS is 0.858 µM; in the assay on CCRF-CEM leukemia it was 1.08 µM; with NCI-H522 lung, 0.281 µM; in the assay on MCF7 breast, 0.328 µM; in the assay with HL-60(TB) leukemia, 0.324 µM; in the assay on OVCAR-5 ovarian, 0.533 µM. In addition, the GI50 with KM12 colon is 1.7 µM; with M14 melanoma, 1.74 µM; in the assay on NCI-H23 lung it was 2.2 µM; in the assay on OVCAR-8 ovarian it was 2.77 µM. The TGI was greater than 100 µM in the assay with U251 CNS; greater than 100 µM with CCRF-CEM leukemia; 1.55 µM in the assay on NCI-H522 lung; greater than 100 µM with MCF7 breast; 14.9 µM in the assay on HL-60(TB) leukemia; greater than 100 µM in the assay on OVCAR-5 ovarian. Besides, the TGI in the assay on KM12 colon is greater than 100 µM; in the assay on M14 melanoma it was 5.4 µM; with NCI-H23 lung it was 8.29 µM; in the assay with OVCAR-8 ovarian, greater than 100 µM.

With `CC(=O)N(C)c1cc(NCc2ccccc2)ccc1OCc1ccccc1`, the TGI in the assay with U251 CNS was found to be 32.9 µM; in the assay with CCRF-CEM leukemia it was 45 µM; in the assay on NCI-H522 lung it was 34 µM; in the assay with MCF7 breast it was 35.2 µM; in the assay on HL-60(TB) leukemia, 77.9 µM; with OVCAR-5 ovarian it was 38.3 µM. Also, the TGI was 47.4 µM with KM12 colon, 50.5 µM in the assay with M14 melanoma, 57.1 µM with NCI-H23 lung and 32.7 µM in the assay on OVCAR-8 ovarian.

In the case of `CC(C)(C)[Si](C)(C)OC1[C@@H](O[Si](C)(C)C(C)(C)C)[C@@H](CNC(=O)NC(=O)NC(=O)CCl)O[C@H]1n1cnc2c(NC(=O)Nc3ccccc3)ncnc21` (stereo not given in full), the GI50 in the assay with U251 CNS was 1.56 µM; in the assay on CCRF-CEM leukemia, 0.127 µM; with NCI-H522 lung, 0.282 µM; with MCF7 breast, 3.76 µM; in the assay on HL-60(TB) leukemia it was 1.45 µM; in the assay with OVCAR-5 ovarian it was 6.41 µM. The GI50 is 1.84 µM in the assay with KM12 colon, 5.34 µM in the assay with M14 melanoma, 1.57 µM in the assay on NCI-H23 lung and 0.955 µM with OVCAR-8 ovarian. The TGI in the assay on U251 CNS is 4.22 µM; in the assay with CCRF-CEM leukemia, 0.334 µM; with NCI-H522 lung, 0.572 µM; in the assay on MCF7 breast, 11.9 µM; with HL-60(TB) leukemia, 3.22 µM; in the assay on OVCAR-5 ovarian it was 14.1 µM. In addition, the TGI in the assay with KM12 colon was found to be 6.12 µM; in the assay with M14 melanoma it was 11.8 µM; in the assay on NCI-H23 lung, 6.59 µM; in the assay with OVCAR-8 ovarian, 3.77 µM.

With `CC(C)n1nc(C#Cc2cccc(O)c2)c2c(N)ncnc21`, the GI50 with U251 CNS was 2.83 µM and 2.95 µM; with CCRF-CEM leukemia, 1.65 µM and 1.15 µM; with NCI-H522 lung, 0.627 µM; with MCF7 breast it was 1.62 µM and 1.51 µM; in the assay with HL-60(TB) leukemia, 0.832 µM and 0.217 µM; with OVCAR-5 ovarian it was 1.79 µM and 1.62 µM. The GI50 in the assay on KM12 colon is 1.75 µM and 2.33 µM; in the assay on M14 melanoma, 0.693 µM and 0.397 µM; with NCI-H23 lung, 1.23 µM and 0.992 µM; in the assay on OVCAR-8 ovarian, 1.99 µM and 2.41 µM. Also, the TGI with U251 CNS was 50 µM and 12.8 µM; with CCRF-CEM leukemia, 50 µM and 13.3 µM; in the assay with NCI-H522 lung, 5.33 µM and 4.55 µM; in the assay on MCF7 breast, 50 µM and 11.9 µM; in the assay on HL-60(TB) leukemia, 10.8 µM and 20.2 µM; in the assay on OVCAR-5 ovarian it was 16.4 µM and 8 µM. Besides, the TGI in the assay with KM12 colon is 25.8 µM and 60.8 µM; in the assay on M14 melanoma, 4.68 µM and 2.42 µM; with NCI-H23 lung, 6.75 µM and 5.4 µM; in the assay on OVCAR-8 ovarian, 30.1 µM and 16.1 µM.
